Test results: US20100080862A1, “COMPOSITIONS AND FOODS FOR IMPROVING LIPID METABOLISM” (Kirin Beer Kabushiki Kaisha, priority 2002, published 2010)

Assays:
[1] = biological target: T1, fused protein of PPARγ with yeast Gal4 protein (Homo sapiens, UniProt P37231); assay: PPARγ agonist screening system consisting of a fused protein, Gal4 luciferase reporter in CV-1 cells (Example 10); type: cell-based; details: humulone compounds at 1, 3, and 10 μM, 48 hours
T1 construct: 204a.a.-505a.a) was cloned; expressed in transfected cells; host or cells: CV-1 cells
T1 sequence (P37231 204-505): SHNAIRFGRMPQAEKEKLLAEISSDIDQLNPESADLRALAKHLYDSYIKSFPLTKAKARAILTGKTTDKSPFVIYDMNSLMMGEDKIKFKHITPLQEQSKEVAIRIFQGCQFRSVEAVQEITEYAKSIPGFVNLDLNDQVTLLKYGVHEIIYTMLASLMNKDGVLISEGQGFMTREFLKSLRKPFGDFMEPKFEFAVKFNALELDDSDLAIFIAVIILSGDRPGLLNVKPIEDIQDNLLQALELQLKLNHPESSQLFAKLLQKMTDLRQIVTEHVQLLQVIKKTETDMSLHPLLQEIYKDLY
From the text: In order to construct a human PPARγ expression plasmid, a PPARγ ligand binding domain (LBD; 204a.a.-505a.a) was cloned from the human heart cDNA library (Gibco). After the sequence was confirmed, the cloned ORF was ligated to the BamHI-Kpn1 site of the expression vector pBind (Promega) to construct the expression vector pGR-Gal4-PPARγ which expresses a fused protein of PPARγ with yeast Gal4 protein. The sequences of primers used for the cloning are as follows: […]
Next, an N terminal sequence (1a.a-76a.a) of the human glucocorticoid receptor (GR) was ligated to the N-terminal of the Gal4 region of pBind so that the reading frame coincided with Gal4. The GR was cloned from the heart cDNA library (Gibco) using PCR. The sequences of primers used for the cloning are as follows: […]
As a reporter plasmid, firefly luciferase expression vector pG5luc (Promega) having 5 copies of the Gal4 binding site introduced into the promoter region was used. CV-1 cells were transfected with the pGR-Gal4-PPARγ and the pG5luc using Lipofect AMINE (Gibco). After the transfection, the medium was replaced with a medium (DMEN, Gibco) with addition of a test sample or control (pioglitazone), and cells were recovered after cultivation for 48 hours. After the cell recovery, cell lysate was prepared using a Dual-Luciferase reporter assay system (Promega) to measure firefly luciferase activity using a luminometer (Luminous CT-9000D, DIA-IATRON). Further, the protein concentration of the cell lysate was measured using a Dc Protein assay (BIO-RAD) to standardize the value of firefly luciferase activity for the protein concentration. The result was expressed as a relative value by setting the value of the negative control to be 1.

[2] = tested on: human PPARγ; assay: PPARγ agonist screening system, PPRE luciferase reporter in CV-1 cells (Example 9); type: cell-based; details: for PPARγ/RXR alpha activating activity compared to that with 1 μM pioglitazone: at a concentration of 10 μm; for PPARγ/RXR alpha activating activity (relative luciferase activity): concentrations of 1, 5, 10, and 50 μM, 48 hours
From the text: In order to construct a human PPARγ expression plasmid, a PPARγ ORF was cloned from the human heart cDNA library (Gibco). After the sequence was confirmed, the cloned ORF was ligated to the NheI-SalI site of the expression vector pCI neo (Promega). The sequences of primers used for the cloning were as follows: […]
Next, in order to construct a reporter plasmid, oligo DNAs having 3 copies of PPRE was constructed and inserted at the KpnI-BglII site of the firefly luciferase reporter vector pGL3-promoter vector (Promega), after which the sequences were confirmed. The sequences of oligo-DNAs containing PPRE are as follows:
CV-1 cells were transfected with the above-mentioned plasmid along with the renilla luciferase reporter vector pRL-SV40 vector for compensation (Promega) using Lipofect AMINE (Gibco). The CV-1 cells used were cultured at a concentration of 5×10^4 cells/ml in 2 ml of DMEM (Gibco) supplemented with 10% fetal calf serum (Gibco) and penicillin-streptomycin (10000 units and 1 mg/ml, respectively; Gibco) on a 12-well plate at 37° C. in an atmosphere of 5% CO2 on the day before transfection. After the transfection, cells for the positive control were cultured in the abovementioned DMEM medium containing 1 μm pioglitazone (Takeda). After cultivating for 48 hours, the cells were recovered and the lysate was prepared using a Dual-Luciferase reporter assay system (Promega) to measure firefly luciferase and renilla luciferase activity using a luminometer (Luminous CT-9000D, DIA-IATRON). Relative luciferase activity was obtained by dividing the value for firefly luciferase activity by the value for renilla luciferase activity.

[3] = tested on: C57BL/6 mice fed high fat diet; assay: Oral glucose tolerance test in mice with high fat diet-induced insulin resistance (Example 15); type: in vivo
Experimental: C57BL/6 mice were fed the high fat diet shown in Example 8 for 12 weeks to induce insulin resistance and then orally administered with the water soluble hop extract for 10 consecutive days (100 and 330 mg/kg/day). After completion of the administration, animals were fasted for 16 hours and then subjected to an oral glucose tolerance test (OGTT). […] After completion of the administration, animals were fasted for 16 hours and then subjected to an oral glucose tolerance test (OGTT). In OGTT, after blood sampling and blood sugar measurement, 1 g/kg of aqueous glucose solution was administered (at time zero), after which blood sampling and blood sugar measurement were carried out at 15, 30, and 60 minutes and blood sugar measurement was carried out at 120 minutes. Change with time in the blood insulin level was measured using an insulin measuring kit (Morinaga Seikagaku Institute).

[4] = tested on: C57BL/6 mice (females); assay: Improving effect of fractionated lupulone on lipid metabolism in mice (Example 14); type: in vivo
Experimental: Improving effect of a fractionated lupulone on lipid metabolism was evaluated using C57BL/6 mice (females). Namely, lupulone was purified from hop pellets (CAS pellets, a product of Saaz, Czech Republic). About 2.5 kg of hop pellets were extracted with 4 L of ethyl acetate 3 times and the extract was concentrated under the reduced pressure to obtain a dark green extract (329.17 g). A portion of the extract (262.7 g) was applied on a silica gel column for fractionation. Chromatography was carried out using a stepwise elution with a hexane-ethyl acetate mixed solution to obtain 15 fractions. The third fraction (41.8 g) was applied on a silica gel column for refractionation and a fraction eluted with a hexane:ethyl acetate (20:1) solution was recrystallized to obtain lupulone (1.88 g, white needle crystals, yield: about 0.094%). Further, 5-week-old C57BL/6NCrj female mice (8 per group) (Japan Charles River) were fed CE2 (Japan Clea) and water for 1 week ad libitum. Then, the animals were divided into 2 groups, i.e., a group fed AIN76A (described in Example 2) with addition of 0.2% cholesterol and 0.3% cellulose (referred to as “group C” hereinafter) and a group fed AIN76A with addition of 0.2% cholesterol and 0.3% lupulone (referred to as “group L” hereinafter). The diets were prepared and administered according to the methods described in Example 2. One week after feeding the test diets, the animals were dissected under non-fasting conditions.

[5] = purified isocohumulone 10 and 30 mg/kg/day oral, 10 days

Compound | PPARγ activating activity (firefly luciferase, relative to negative control) [1] | PPARγ/RXR alpha activating activity compared to that with 1 μM pioglitazone [2] | PPARγ/RXR alpha activating activity (relative luciferase activity) [2] | insulin resistance (blood insulin concentration upon OGTT) ([3]; oral, 10 consecutive days, water soluble extract 100 and 330 mg/kg/day, purified isocohumulone 10 and 30 mg/kg/day) | glucose tolerance (blood sugar level upon OGTT) ([3]; oral, 10 consecutive days, water soluble extract 100 and 330 mg/kg/day, purified isocohumulone 10 and 30 mg/kg/day, 1 g/kg glucose after 16 h fasting) | insulin concentration before the administration (of glucose) [3, 5] | insulin concentration thereafter (after glucose administration) [3, 5] | cholesterol content per g of liver ([4]; group L 0.3% lupulone in AIN76A + 0.2% cholesterol, one week, non-fasting) | body weight ([4]; group L 0.3% lupulone in diet) | body weight gain per calorie intake ([4]; group L 0.3% lupulone in diet)
CC(C)=CCC1=C(O)C(O)(CC=C(C)C)C(=O)C(C(=O)C(C)C)=C1O (stereo not drawn) [cohumulones, cohumulone] | activity was confirmed | almost equivalent | exhibited the activity |  |  |  |  |  |  | 
CC(C)=CCC1=C(O)[C@](O)(CC=C(C)C)C(=O)C(C(=O)CC(C)C)=C1O [humulones, humulone] | activity was confirmed | almost equivalent | exhibited the activity |  |  |  |  |  |  | 
CCC(C)C(=O)C1=C(O)C(O)(C(=O)CC=C(C)C)C(CC=C(C)C)C1=O (stereo not drawn) [isoadhumulones, isoadhumulone] |  | almost equivalent | exhibited the activity |  |  |  |  |  |  | 
CC(C)=CCC(=O)C1(O)C(O)=C(C(=O)C(C)C)C(=O)C1CC=C(C)C (stereo not drawn) [isocohumulones, isocohumulone] | activity was confirmed | almost equivalent | exhibited the activity | amelioration | Amelioration | significantly decreased | tended to keep decreasing |  |  | 
CC(C)=CCC(=O)C1(O)C(O)=C(C(=O)CC(C)C)C(=O)C1CC=C(C)C (stereo not drawn) [isohumulones, isohumulone] | activity was confirmed | almost equivalent | exhibited the activity |  |  |  |  |  |  | 
CC(C)=CCC1=C(O)C(CC=C(C)C)(CC=C(C)C)C(=O)C(C(=O)CC(C)C)=C1O [lupulone] |  |  |  |  |  |  |  | significant decrease | significant decrease | significantly reduced
